Read-outs that look alike come from different tables or passages of the source.
Key:
d-U937 cells = assay: LPS-induced TNFα/IL-8 release in d-U937 cells; assay type: cell-based; settings: Homo sapiens, dU937, LPS-stimulated d-U937 cells
Description: U937 cells, a human monocytic cell line, are differentiated to macrophage-type cells by incubation with phorbol myristate acetate (PMA; 100 ng/mL) for 48 to 72 hr. Cells are pre-incubated with final concentrations of test compound for 2 hr and are then stimulated with 0.1 μg/mL of LPS (from E. Coli: 0111:B4, Sigma) for 4 hr. The supernatant is collected for determination of TNFα and IL-8 concentrations by sandwich ELISA (Duo-set, R&D systems). The inhibition of TNFα production is calculated as a percentage of that achieved by 10 μg/mL of BIRB796 at each concentration of test compound by comparison against vehicle control. The relative 50% effective concentration (REC50) is determined from the resultant concentration-response curve. The inhibition of IL-8 production is calculated at each concentration of test compound by comparison with vehicle control. The 50% inhibitory concentration (IC50) is determined from the resultant concentration-response curve.

c-Src = c-Src (Homo sapiens (Human), UniProt P12931); assay: c-Src enzyme inhibition, Z-LYTE FRET; assay type: biochemical
Description: (§1) The enzyme inhibitory activities of compounds disclosed herein are determined by FRET using synthetic peptides labelled with both donor and acceptor fluorophores (Z-LYTE, Invitrogen Ltd., Paisley, UK).
(§2) The inhibitory activities of compounds of the invention against c-Src and Syk enzymes (Invitrogen), are evaluated in a similar fashion to that described hereinabove. The relevant enzyme (3000 ng/mL or 2000 ng/mL respectively, 2.5 μL) is incubated with the test compound (either 4 μg/mL, 0.4 μg/mL, 0.04 μg/mL, or 0.004 μg/mL, 2.5 μL each) for 2 hr at RT. The FRET peptides (8 μM. 2.5 μL), and appropriate ATP solutions (2.5 μL, 800 μM for c-Src, and 60 μM ATP for Syk) are then added to the enzymes/compound mixtures and incubated for 1 hr. Development reagent (protease, 5 μL) is added for 1 hr prior to detection in a fluorescence microplate reader (Varioskan® Flash, ThermoFisher Scientific).
(§3) In all cases, the site-specific protease cleaves non-phosphorylated peptide only and eliminates the FRET signal. Phosphorylation levels of each reaction are calculated using the ratio of coumarin emission (donor) over fluorescein emission (acceptor), for which high ratios indicate high phosphorylation and low ratios indicate low phosphorylation levels. The percentage inhibition of each reaction is calculated relative to non-inhibited control and the 50% inhibitory concentration (IC50 value) is then calculated from the concentration-response curve.

PBMCs [1] = assay: LPS-induced TNFα/IL-8 release in PBMC cells; assay type: cell-based; settings: Homo sapiens, LPS-stimulated PBMCs
Description: Peripheral blood mononuclear cells (PBMCs) from healthy subjects are separated from whole blood using a density gradient (Lymphoprep, Axis-Shield Healthcare). The PBMCs are seeded in 96 well plates and treated with compounds at the desired concentration for 2 hours before addition of 1 ng/mL LPS (Escherichia Coli 0111:B4 from Sigma Aldrich) for 24 hours under normal tissue culture conditions (37° C., 5% CO2). The supernatant is harvested for determination of IL-8 and TNFα concentrations by sandwich ELISA (Duo-set, R&D systems) and read on the fluorescence microplate reader (Varioskan® Flash, ThermoFisher Scientific). The concentration at 50% inhibition (IC50) of IL-8 and TNFα production is calculated from the dose response curve.

p38 MAPKα = p38 MAPKα (Homo sapiens (Human), UniProt Q16539); assay: p38 MAPKα enzyme inhibition (Method 2), Z-LYTE FRET; assay type: biochemical
Description: as §1
The inhibitory activities of test compounds against the p38 MAPKα isoform (MAPK14: Invitrogen), are evaluated indirectly by determining the level of activation/phosphorylation of the down-stream molecule, MAPKAP-K2. The p38 MAPKα protein (80 ng/mL, 2.5 μL) is mixed with the test compound (2.5 μL of either 4 μg/mL, 0.4 μg/mL, 0.04 μg/mL or 0.004 μg/mL) for 2 hr at RT. […] The mixture is incubated for 1 hr at RT. Development reagent (protease, […]) is added for 1 hr prior to detection in a fluorescence microplate reader (Varioskan® Flash, ThermoFisher Scientific).
This method follows the same steps as Method 1 above, but utilises a higher concentration of the p38 MAPKα protein (2.5 μL of 200 ng/mL protein instead of 2.5 μL of 80 ng/mL protein) for mixing with the test compound.
as §3

Syk = Syk (Homo sapiens (Human), UniProt P43405); assay: Syk enzyme inhibition, Z-LYTE FRET; assay type: biochemical
Description: as §1, §2, §3

GSK3α = GSK3α (Homo sapiens (Human), UniProt P49840); assay: GSK 3α enzyme inhibition (Method 2), Z-LYTE FRET; assay type: biochemical
Description: as §1
The inhibitory activities of compounds of the invention against the GSK 3α enzyme isoform (Invitrogen), are evaluated by determining the level of activation/phosphorylation of the target peptide. The GSK3-α protein (500 ng/mL, 2.5 μL) is mixed with the test compound (2.5 μL at either 4 μg/mL, 0.4 μg/mL, 0.04 μg/mL, or 0.004 μg/mL) for 2 hr at RT. The FRET peptide (8 μM, 2.5 μL), which is a phosphorylation target for GSK3α, and ATP (40 μM, 2.5 μL) are then added to the enzyme/compound mixture and the resulting mixture incubated for 1 hr. Development reagent (protease, 5 μL) is added for 1 hr prior to detection in a fluorescence microplate reader (Varioskan® Flash, ThermoFisher Scientific).
as §3
This method follows the same steps as Method 1 above, but utilises a shorter period of mixing of the test compound (105 minutes instead of 2 hours) with the GSK3-α protein.

HT29 cells = assay: IL-1-induced IL-8 release in HT29 cells; assay type: cell-based; settings: Homo sapiens, HT-29, IL-1β-stimulated HT29 cells, read-out: IC50 Values for Inhibition of Cytokine Release HT29 cells IL-8
Description: HT29 cells, a human colon adenocarcinoma cell line, are plated in a 96 well plate (24 hrs) and pre-treated with compounds at the desired concentration for 2 hours before addition of 5 ng/mL of IL-1β (Abcam) for 24 hours. Supernatants are harvested for IL-8 quantification by Sandwich ELISA (Duo-set, R&D System). The IC50 is determined from the dose response curve.

PBMCs [2] = assay: IL-2 and IFN gamma release in CD3/CD28 stimulated PBMC cells; assay type: cell-based; settings: Homo sapiens
Description: PBMCs from healthy subjects are separated from whole blood using a density gradient (Lymphoprep, Axis-Shield Healthcare). Cells are added to a 96 well plate pre-coated with a mixture of CD3/CD38 monoclonal antibodies (0.3 μg/mL eBioscience and 3 μg/mL BD Pharmingen respectively). Compound at the desired concentration is then added to the wells and the plate left for 3 days under normal tissue culture conditions. Supernatants are harvested and IL-2 and IFN gamma release determined by Sandwich ELISA (Duo-set, R&D System). The IC50 is determined from the dose response curve.

[3] = IL-8, read-out: IC50 Values for Inhibition of Cytokine Release dU937 cells IL-8
[4] = TNFα (method describes REC50 relative to BIRB796), read-out: IC50 Values for Inhibition of Cytokine Release dU937 cells TNFα
[5] = IL-8, read-out: IC50 Values for Inhibition of Cytokine Release PBMCs IL-8
[6] = IL-2, read-out: IC50 Values for Inhibition of Cytokine Release PBMCs IL-2
[7] = IFNγ, read-out: IC50 Values for Inhibition of Cytokine Release PBMCs IFNγ

Chain of GSK3α (P49840 whole entry): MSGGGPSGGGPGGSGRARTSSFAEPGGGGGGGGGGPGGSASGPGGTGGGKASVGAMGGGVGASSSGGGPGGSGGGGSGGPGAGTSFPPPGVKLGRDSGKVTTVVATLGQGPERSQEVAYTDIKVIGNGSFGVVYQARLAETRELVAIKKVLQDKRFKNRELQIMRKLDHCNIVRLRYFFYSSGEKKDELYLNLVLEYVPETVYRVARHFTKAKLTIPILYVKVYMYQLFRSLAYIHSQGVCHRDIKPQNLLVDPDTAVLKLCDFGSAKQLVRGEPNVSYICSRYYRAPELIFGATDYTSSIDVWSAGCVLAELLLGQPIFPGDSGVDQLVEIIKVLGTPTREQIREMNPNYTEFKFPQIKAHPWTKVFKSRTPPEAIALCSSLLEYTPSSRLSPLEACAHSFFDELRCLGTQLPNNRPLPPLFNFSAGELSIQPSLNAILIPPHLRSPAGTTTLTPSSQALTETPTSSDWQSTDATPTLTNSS
Chain of c-Src (P12931 whole entry, looked up): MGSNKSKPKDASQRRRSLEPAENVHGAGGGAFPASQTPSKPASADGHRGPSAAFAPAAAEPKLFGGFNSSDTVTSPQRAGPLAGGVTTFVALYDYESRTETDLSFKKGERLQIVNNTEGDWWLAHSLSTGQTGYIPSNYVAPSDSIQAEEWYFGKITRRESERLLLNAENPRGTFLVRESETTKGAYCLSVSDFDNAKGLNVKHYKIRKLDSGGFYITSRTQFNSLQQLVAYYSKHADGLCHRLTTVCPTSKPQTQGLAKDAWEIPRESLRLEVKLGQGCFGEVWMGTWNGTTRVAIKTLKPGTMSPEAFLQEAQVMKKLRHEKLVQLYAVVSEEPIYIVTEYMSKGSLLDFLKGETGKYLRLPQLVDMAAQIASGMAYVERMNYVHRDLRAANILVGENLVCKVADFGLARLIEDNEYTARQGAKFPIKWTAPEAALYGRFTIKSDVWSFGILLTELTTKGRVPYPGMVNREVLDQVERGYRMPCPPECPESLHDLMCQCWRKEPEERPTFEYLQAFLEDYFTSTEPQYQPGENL
Chain of p38 MAPKα (Q16539 whole entry): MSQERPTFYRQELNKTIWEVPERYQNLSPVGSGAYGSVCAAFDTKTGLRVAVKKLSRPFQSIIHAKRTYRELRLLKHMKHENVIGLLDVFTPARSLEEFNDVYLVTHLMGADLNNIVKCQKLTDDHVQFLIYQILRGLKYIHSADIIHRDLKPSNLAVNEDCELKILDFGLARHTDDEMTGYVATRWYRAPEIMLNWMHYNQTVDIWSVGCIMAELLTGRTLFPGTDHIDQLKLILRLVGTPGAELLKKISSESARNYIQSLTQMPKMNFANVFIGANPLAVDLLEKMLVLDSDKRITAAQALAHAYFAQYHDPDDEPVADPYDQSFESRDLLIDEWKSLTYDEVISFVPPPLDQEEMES

Compound | IC50 (d-U937 cells; [3]) [nM] | IC50 (d-U937 cells; [4]) [nM] | IC50 (c-Src) [nM] | IC50 (PBMCs [1]; [5]) [nM] | IC50 (PBMCs [1]; TNFα, assay (b), read-out: IC50 for inhibition of TNFα release in PBMCs) [nM] | IC50 (p38 MAPKα) [nM] | IC50 (Syk) [nM] | IC50 (GSK3α) [nM] | IC50 (HT29 cells) [nM] | IC50 (PBMCs [2]; [6]) [nM] | IC50 (PBMCs [2]; [7]) [nM]
C#CC(C)(C)c1cc(NC(=O)Nc2ccc(Oc3ccnc(Nc4ccccc4)n3)c3ccccc23)n(-c2ccc(C)cc2)n1 [Example 1, 1-(3-(2-Methylbut-3-yn-2-yl)-1-(p-tolyl)-1H-pyrazol-5-yl)-3-(4-((2-(phenylamino)pyrimidin-4-yl)oxy)naphthalen-1-yl)urea] | 3.2 | 1.4 | 60 | 1.6 | 2.5 | 85 | > 1000 | > 10000 |  |  | 
C#CC(C)(C)c1cc(NC(=O)Nc2ccc(Oc3ccnc(Nc4ccc5c(c4)NC(=O)C5)n3)c3ccccc23)n(-c2ccc(C)cc2)n1 [Example 3, 1-(3-(2-Methylbut-3-yn-2-yl)-1-(p-tolyl)-1H-pyrazol-5-yl)-3-(4-((2-((2-oxoindolin-6-yl)amino)pyrimidin-4-yl)oxy)naphthalen-1-yl)urea] | 4.4 | 2.8 | 203 | 2.1 |  | 87 | 113 | > 10000 | 6 | 0.7 | 
C#CC(C)(C)c1cc(NC(=O)Nc2ccc(Oc3ccnc(Nc4cc(C(=O)NCCN5CCOCC5)cc(C(F)(F)F)c4)n3)c3ccccc23)n(-c2ccc(C)cc2)n1 [Example 12, 3-((4-((4-(3-(3-(2-Methylbut-3-yn-2-yl)-1-(p-tolyl)-1H-pyrazol-5-yl)ureido)naphthalen-1-yl)oxy)pyrimidin-2-yl)amino)-N-(2-morpholinoethyl)-5-(trifluoromethyl)benzamide] | 1.2 |  | 74 | 2.1 |  | 214 | 275 | 2310 | 3.7 | 171 | 2.6
C#CC(C)(C)c1cc(NC(=O)Nc2ccc(Oc3ccnc(Nc4cc(OC(F)(F)F)cc(C(=O)NCCN5CCOCC5)c4)n3)c3ccccc23)n(-c2ccc(C)cc2)n1 [Example 14, 3-((4-((4-(3-(3-(2-Methylbut-3-yn-2-yl)-1-(p-tolyl)-1H-pyrazol-5-yl)ureido)naphthalen-1-yl)oxy)pyrimidin-2-yl)amino)-N-(2-morpholinoethyl)-5-(trifluoromethoxy)benzamide] | 1.8 |  | 37 | 1.4 |  | 273 | 203 | 5440 | 3.6 | 170 | 2
C#Cc1cc(Nc2nccc(Oc3ccc(NC(=O)Nc4cc(C(C)(C)C#C)nn4-c4ccc(C)cc4)c4ccccc34)n2)cc(C(=O)NCCN2CCOCC2)c1 [Example 15, 3-Ethynyl-5-((4-((4-(3-(3-(2-methylbut-3-yn-2-yl)-1-(p-tolyl)-1H-pyrazol-5-yl)ureido)naphthalen-1-yl)oxy)pyrimidin-2-yl)amino)-N-(2-morpholinoethyl)benzamide] | 1.3 |  | 16 | 0.8 |  | 67 | 40 | 3590 | 2.5 | 69.3 | 2.4

Reference: patent US9790209B2, “Kinase inhibitors” (Respivert Limited, priority 2012, dated 2017)
